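Each compound was tested at five concentrations against cells in 96-well plates for 48 hours. The concentration for 50% growth inhibition is given as GI50.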 Activity calls are given as the source filed them. Cut-off read from the data, not from the text of the source: active = GI50 up to about 1.1 µM and inactive = higher.
What was measured:
Experiment in all cases: growth of human tumour cells (NCI), 48 h
[1] = system: SK-MEL-2
[2] = system: MDA-MB-435
[3] = system: SF-268
[4] = system: NCI/ADR-RES
[5] = system: NCI-H226
[6] = system: SK-MEL-5
[7] = system: Malme-3M
[8] = system: SK-MEL-28
[9] = system: U-251
[10] = system: MOLT-4
[11] = system: 786-0
[12] = system: A498
[13] = system: SN12C
[14] = system: A549
[15] = system: HCT-15
[16] = system: SK-OV-3
[17] = system: SNB-19
[18] = system: HCC 2998
[19] = system: EKVX
[20] = system: MDA-N

Row | SMILES | GI50 [1] | GI50 [2] | GI50 [3] | GI50 [4] | GI50 [5] | GI50 [6] | GI50 [7] | GI50 [8] | GI50 [9] | GI50 [10] | GI50 [11] | GI50 [12] | GI50 [13] | GI50 [14] | GI50 [15] | GI50 [16] | GI50 [17] | GI50 [18] | GI50 [19] | GI50 [20]
1 | CC(N/N=C(\S)N1CCN(c2ccccn2)CC1)c1nccc2ccccc12 (stereo not given) | 4.23 µM (inactive) | 1.66 µM (inactive) | 0.514 µM (active) | < 0.0216 µM (active) | 1.83 µM (inactive) | 0.897 µM (active) | 1.03 µM (active) | 2.61 µM (inactive) | 0.385 µM (active) | < 0.01 µM (active) | 0.693 µM (active) | 5.71 µM (inactive) | 0.927 µM (active) | 1.65 µM (inactive) | 0.641 µM | 0.241 µM (active) | 2.56 µM (inactive) | 0.769 µM (active) | – | –
2 | O=C(O)Cn1ncn(NC(=O)Cc2ccccc2)c1=S | – | > 10 µM (inactive) | > 10 µM (inactive) | > 10 µM (inactive) | – | > 10 µM (inactive) | > 10 µM (inactive) | > 10 µM (inactive) | > 10 µM (inactive) | > 10 µM (inactive) | > 10 µM (inactive) | > 10 µM (inactive) | > 10 µM (inactive) | > 10 µM (inactive) | > 10 µM | > 10 µM (inactive) | > 10 µM (inactive) | > 10 µM (inactive) | > 10 µM (inactive) | > 10 µM (inactive)
3 | O=C(O)c1cc2ccccc2c(/N=N/c2c([N+](=O)[O-])cc([N+](=O)[O-])cc2S(=O)(=O)O)c1O | > 100 µM (inactive) | > 100 µM (inactive) | > 100 µM (inactive) | > 100 µM (inactive) | > 100 µM (inactive) | > 100 µM (inactive) | > 100 µM (inactive) | > 100 µM (inactive) | > 100 µM (inactive) | > 100 µM (inactive) | > 100 µM (inactive) | – | > 100 µM (inactive) | > 100 µM (inactive) | > 100 µM | > 100 µM (inactive) | > 100 µM (inactive) | – | > 100 µM (inactive) | > 100 µM (inactive)
4 | C=C(CC(=O)Nc1ccc(C(=O)OC)o1)C(=O)OC | 20.7 µM (inactive) | 17.8 µM (inactive) | 36.6 µM (inactive) | 41.3 µM (inactive) | 26.5 µM (inactive) | 18.5 µM (inactive) | 19.7 µM (inactive) | 23 µM (inactive) | 35 µM (inactive) | 18.8 µM (inactive) | 19.7 µM (inactive) | 42.8 µM (inactive) | 24.9 µM (inactive) | 18.2 µM (inactive) | 24.7 µM | 28.7 µM (inactive) | 25.3 µM (inactive) | – | 21.8 µM (inactive) | > 10 µM (inactive)
5 | Cc1nc(-c2cc3c(ccc4ccccc43)oc2=O)cs1 | > 100 µM (inactive) | > 100 µM (inactive) | 35.6 µM (inactive) | 48.3 µM (inactive) | 66.4 µM (inactive) | > 100 µM (inactive) | 76.2 µM (inactive) | > 100 µM (inactive) | 57.9 µM (inactive) | > 100 µM (inactive) | 39.1 µM (inactive) | – | > 100 µM (inactive) | > 100 µM (inactive) | > 100 µM | 37.8 µM (inactive) | 33.2 µM (inactive) | > 100 µM (inactive) | 35.8 µM (inactive) | > 100 µM (inactive)
6 | [O-][S+](CCc1ccccc1)Nc1ccccc1 (stereo not given) | – | > 100 µM (inactive) | > 100 µM (inactive) | 58.5 µM (inactive) | > 100 µM (inactive) | > 100 µM (inactive) | > 100 µM (inactive) | > 100 µM (inactive) | > 100 µM (inactive) | > 100 µM (inactive) | > 100 µM (inactive) | – | > 100 µM (inactive) | > 100 µM (inactive) | > 100 µM | – | > 100 µM (inactive) | > 100 µM (inactive) | > 100 µM (inactive) | > 100 µM (inactive)
7 | c1ccc(CCc2cccnc2)nc1 | > 100 µM (inactive) | > 100 µM (inactive) | > 100 µM (inactive) | > 100 µM (inactive) | > 100 µM (inactive) | > 100 µM (inactive) | > 100 µM (inactive) | > 100 µM (inactive) | > 100 µM (inactive) | > 100 µM (inactive) | > 100 µM (inactive) | > 100 µM (inactive) | > 100 µM (inactive) | > 100 µM (inactive) | > 100 µM | > 100 µM (inactive) | > 100 µM (inactive) | – | > 100 µM (inactive) | > 100 µM (inactive)
8 | Cn1c(N/N=C/c2ccccc2)nc(-c2ccc([N+](=O)[O-])cc2)c(C#N)c1=O | 34.4 µM (inactive) | > 100 µM (inactive) | 39.7 µM (inactive) | 86.3 µM (inactive) | – | 35.4 µM (inactive) | 33.1 µM (inactive) | > 100 µM (inactive) | 66.1 µM (inactive) | 10.4 µM (inactive) | 91.8 µM (inactive) | 65.8 µM (inactive) | 47.2 µM (inactive) | 28.8 µM (inactive) | 30.5 µM | > 100 µM (inactive) | > 100 µM (inactive) | – | 66.7 µM (inactive) | 89.3 µM (inactive)
9 | O=[N+]([O-])c1ccc(OCc2nnc(CCCCCCCCc3nnc(COc4ccc([N+](=O)[O-])cc4)o3)o2)cc1 | > 100 µM (inactive) | > 100 µM (inactive) | 44.5 µM (inactive) | > 100 µM (inactive) | > 100 µM (inactive) | > 100 µM (inactive) | > 100 µM (inactive) | > 100 µM (inactive) | 95.9 µM (inactive) | > 100 µM (inactive) | > 100 µM (inactive) | > 100 µM (inactive) | > 100 µM (inactive) | > 100 µM (inactive) | > 100 µM | 40.6 µM (inactive) | > 100 µM (inactive) | > 100 µM (inactive) | > 100 µM (inactive) | –
10 | Cc1cc(C)nc(NS(=O)(=O)c2ccc(NNC(=O)c3cccc4c(NNc5ccc(S(=O)(=O)Nc6nc(C)cc(C)n6)cc5)c5ccccc5nc34)cc2)n1 | 23.6 µM (inactive) | 20.9 µM (inactive) | 20.7 µM (inactive) | 68.5 µM (inactive) | 25.2 µM (inactive) | 16.9 µM (inactive) | 20.7 µM (inactive) | 23.4 µM (inactive) | 22.9 µM (inactive) | 26 µM (inactive) | 21.8 µM (inactive) | – | 31.1 µM (inactive) | 30.5 µM (inactive) | 19.7 µM | 25.3 µM (inactive) | 24.5 µM (inactive) | 21.4 µM (inactive) | 18.7 µM (inactive) | 20.9 µM (inactive)
11 | O=c1[nH]c2cc([N+](=O)[O-])c(N/N=C/c3ccc(Cl)cc3Cl)c([N+](=O)[O-])c2[nH]1 | > 100 µM (inactive) | 5.21 µM (inactive) | 75.3 µM (inactive) | 15.5 µM (inactive) | 58.3 µM (inactive) | > 100 µM (inactive) | 31.2 µM (inactive) | > 100 µM (inactive) | 34.4 µM (inactive) | 32.9 µM (inactive) | 32.1 µM (inactive) | 14.3 µM (inactive) | 37.5 µM (inactive) | 37.9 µM (inactive) | 40.3 µM | 30.1 µM (inactive) | 64 µM (inactive) | – | > 100 µM (inactive) | 7.48 µM (inactive)
12 | COCc1cc2c(cc1/C(=C/[N+](=O)[O-])CS(=O)(=O)c1ccccc1)OCO2 | – | > 100 µM (inactive) | > 100 µM (inactive) | > 100 µM (inactive) | > 100 µM (inactive) | > 100 µM (inactive) | – | > 100 µM (inactive) | > 100 µM (inactive) | > 100 µM (inactive) | > 100 µM (inactive) | > 100 µM (inactive) | > 100 µM (inactive) | > 100 µM (inactive) | > 100 µM | > 100 µM (inactive) | – | > 100 µM (inactive) | > 100 µM (inactive) | > 100 µM (inactive)
13 | COc1ccc(N[S+]([O-])CCc2ccccc2)cc1 (stereo not given) | – | > 100 µM (inactive) | > 100 µM (inactive) | 58.1 µM (inactive) | > 100 µM (inactive) | > 100 µM (inactive) | > 100 µM (inactive) | > 100 µM (inactive) | > 100 µM (inactive) | > 100 µM (inactive) | > 100 µM (inactive) | – | > 100 µM (inactive) | > 100 µM (inactive) | > 100 µM | 4.35 µM (inactive) | > 100 µM (inactive) | 94 µM (inactive) | > 100 µM (inactive) | > 100 µM (inactive)
14 | Cc1cn(CC2=NCC(C)(C)CN2)c(=O)[nH]c1=O | > 100 µM (inactive) | – | > 100 µM (inactive) | > 100 µM (inactive) | > 100 µM (inactive) | > 100 µM (inactive) | > 100 µM (inactive) | > 100 µM (inactive) | > 100 µM (inactive) | – | > 100 µM (inactive) | > 100 µM (inactive) | > 100 µM (inactive) | > 100 µM (inactive) | > 100 µM | > 100 µM (inactive) | > 100 µM (inactive) | > 100 µM (inactive) | > 100 µM (inactive) | > 100 µM (inactive)
15 | CC(C)c1c(O[Si](C(C)C)(C(C)C)C(C)C)c2c3c(ccc4c3c1OC4(C)C)C(C)CC2 (stereo not given) | > 100 µM (inactive) | > 100 µM (inactive) | > 100 µM (inactive) | > 100 µM (inactive) | > 100 µM (inactive) | > 100 µM (inactive) | > 100 µM (inactive) | > 100 µM (inactive) | > 100 µM (inactive) | > 100 µM (inactive) | > 100 µM (inactive) | > 100 µM (inactive) | > 100 µM (inactive) | > 100 µM (inactive) | > 100 µM | > 100 µM (inactive) | > 100 µM (inactive) | – | > 100 µM (inactive) | > 100 µM (inactive)

Reference: ChEMBL document CHEMBL1201862, “PubChem BioAssay data set” (2004)
